The values below come from patent US7964531B2, “3-phenoxy-4-pyridazinol derivatives and herbicidal composition containing the same” (Mitsui Chemicals Agro, Inc., priority 2001, dated 2011).

Assay type in all cases: in vivo
Settings in all cases: wettable powder applied 3 days after transplanting, judged after 25 days

In series [1] the test system is Cyperus serotinus. Description: Test Example 1: herbicidal effects, paddy-field pot test. A digest of the protocol: (§1)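 Herbicidal effect and rice injury were graded on a six-step growth-inhibition scale (0: 0–10% to 5: 91–100%) at 25 days after pot application of water-diluted wettable powder, given 3 days post-transplant under flooded greenhouse conditions.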
In series [2] the test system is Scirpus joncoides. The description is as above. In outline: as §1
Series [3] concerns annual broad-leaved weeds (Lindernia spp., Rotala indica). The series is described as above. A digest of the protocol:
as §1

The test system of series [4] is barnyardgrass (Echinochloa oryzicola Vasing.). Described as above. A digest of the protocol:
as §1

For series [5], the system named is transplanted paddy-field rice. Description: Test Example 1: crop injury against transplanted paddy-field rice. In outline:
as §1

SMILES strings stand for the structures.

`Cc1cccc(Cl)c1Oc1nnc(Cl)cc1O` [Example 242]: the “Herbicidal effects Cyperus serotinus” value in series [1] (chemical dosage 12.5 g/a) and in series [1] (chemical dosage 25 g/a) was 5 (Growth inhibition rate; 91 to 100%) each time. Moreover, the “Herbicidal effects Scirpus joncoides” value in series [2] (chemical dosage 12.5 g/a) is 3 (Growth inhibition rate; 51 to 70%); in series [2] (chemical dosage 25 g/a), 4 (Growth inhibition rate; 71 to 90%). Further, the “Herbicidal effects Broad leaf” value in series [3] (chemical dosage 12.5 g/a) and in series [3] (chemical dosage 25 g/a) was 5 (Growth inhibition rate; 91 to 100%) throughout. Also, the “Herbicidal effects Barnyard grass” value was 3 (Growth inhibition rate; 51 to 70%) in series [4] (chemical dosage 12.5 g/a) and 4 (Growth inhibition rate; 71 to 90%) in series [4] (chemical dosage 25 g/a). The “Crop injury against transplanted rice” value in series [5] (chemical dosage 12.5 g/a) and in series [5] (chemical dosage 25 g/a) was 0 (Growth inhibition rate; 0 to 10%) each time.
As to `Cc1ccccc1Oc1nnc(Cl)cc1OC(=O)c1ccccc1` [Example 328], the “Herbicidal effects Cyperus serotinus” value in series [1] (chemical dosage 10 g/a) and in series [1] (chemical dosage 20 g/a) was 5 (Growth inhibition rate; 91 to 100%) each time. For the same molecule, the “Herbicidal effects Scirpus joncoides” value is listed as 3 (Growth inhibition rate; 51 to 70%) in series [2] (chemical dosage 10 g/a) and 5 (Growth inhibition rate; 91 to 100%) in series [2] (chemical dosage 20 g/a). In addition, the entries for the “Herbicidal effects Broad leaf” value in series [3] (chemical dosage 10 g/a) and in series [3] (chemical dosage 20 g/a) were 3 (Growth inhibition rate; 51 to 70%) and 5 (Growth inhibition rate; 91 to 100%), respectively. Further, the “Herbicidal effects Barnyard grass” value in series [4] (chemical dosage 10 g/a) is on record as 3 (Growth inhibition rate; 51 to 70%); in series [4] (chemical dosage 20 g/a), 4 (Growth inhibition rate; 71 to 90%). For the same molecule, the “Crop injury against transplanted rice” value in series [5] (chemical dosage 10 g/a) and in series [5] (chemical dosage 20 g/a) was 0 (Growth inhibition rate; 0 to 10%) each time.
As to `CC(=O)Oc1cc(Cl)nnc1Oc1ccccc1C1CC1` [Example 323], the “Herbicidal effects Cyperus serotinus” value in series [1] (chemical dosage 10 g/a) and in series [1] (chemical dosage 20 g/a) was 5 (Growth inhibition rate; 91 to 100%) in each case. The “Herbicidal effects Scirpus joncoides” value in series [2] (chemical dosage 10 g/a) and in series [2] (chemical dosage 20 g/a) was 5 (Growth inhibition rate; 91 to 100%) each time. In addition, the “Herbicidal effects Broad leaf” value in series [3] (chemical dosage 10 g/a) and in series [3] (chemical dosage 20 g/a) was 5 (Growth inhibition rate; 91 to 100%) throughout. The entries for the “Herbicidal effects Barnyard grass” value in series [4] (chemical dosage 10 g/a) and in series [4] (chemical dosage 20 g/a) were 3 (Growth inhibition rate; 51 to 70%) and 4 (Growth inhibition rate; 71 to 90%), respectively. The “Crop injury against transplanted rice” value in series [5] (chemical dosage 10 g/a) and in series [5] (chemical dosage 20 g/a) was 0 (Growth inhibition rate; 0 to 10%) each time.
With `CCc1cccc(Cl)c1Oc1nnc(Cl)cc1O` [Example 243], the “Herbicidal effects Cyperus serotinus” value in series [1] (chemical dosage 12.5 g/a) and in series [1] (chemical dosage 25 g/a) was 5 (Growth inhibition rate; 91 to 100%) in each case. Also, the “Herbicidal effects Scirpus joncoides” value in series [2] (chemical dosage 12.5 g/a) and in series [2] (chemical dosage 25 g/a) was 4 (Growth inhibition rate; 71 to 90%) throughout. For the same molecule, the “Herbicidal effects Broad leaf” value in series [3] (chemical dosage 12.5 g/a) and in series [3] (chemical dosage 25 g/a) was 5 (Growth inhibition rate; 91 to 100%) throughout. In addition, the “Herbicidal effects Barnyard grass” value in series [4] (chemical dosage 12.5 g/a) is 1 (Growth inhibition rate; 11 to 30%); in series [4] (chemical dosage 25 g/a), 2 (Growth inhibition rate; 31 to 50%). In addition, the “Crop injury against transplanted rice” value in series [5] (chemical dosage 12.5 g/a) and in series [5] (chemical dosage 25 g/a) was 0 (Growth inhibition rate; 0 to 10%) in each case.
For `CCCc1c(C)cc(C)cc1Oc1nnc(Cl)cc1O` [Example 287], the “Herbicidal effects Cyperus serotinus” value in series [1] (chemical dosage 12.5 g/a) is on record as 1 (Growth inhibition rate; 11 to 30%); in series [1] (chemical dosage 25 g/a) it was 3 (Growth inhibition rate; 51 to 70%). Moreover, the “Herbicidal effects Scirpus joncoides” value in series [2] (chemical dosage 12.5 g/a) and in series [2] (chemical dosage 25 g/a) was 5 (Growth inhibition rate; 91 to 100%) throughout. Moreover, the “Herbicidal effects Broad leaf” value in series [3] (chemical dosage 12.5 g/a) and in series [3] (chemical dosage 25 g/a) was 5 (Growth inhibition rate; 91 to 100%) throughout. For the same molecule, the “Herbicidal effects Barnyard grass” value in series [4] (chemical dosage 12.5 g/a) and in series [4] (chemical dosage 25 g/a) was 0 (Growth inhibition rate; 0 to 10%) throughout. Also, the “Crop injury against transplanted rice” value in series [5] (chemical dosage 12.5 g/a) and in series [5] (chemical dosage 25 g/a) was 0 (Growth inhibition rate; 0 to 10%) each time.
On to `CCc1cccc(Br)c1Oc1nnc(Cl)cc1O` [Example 250], for which the “Herbicidal effects Cyperus serotinus” value in series [1] (chemical dosage 10 g/a) and in series [1] (chemical dosage 20 g/a) was 5 (Growth inhibition rate; 91 to 100%) each time. The “Herbicidal effects Scirpus joncoides” value in series [2] (chemical dosage 10 g/a) and in series [2] (chemical dosage 20 g/a) was 5 (Growth inhibition rate; 91 to 100%) throughout. The “Herbicidal effects Broad leaf” value in series [3] (chemical dosage 10 g/a) and in series [3] (chemical dosage 20 g/a) was 5 (Growth inhibition rate; 91 to 100%) throughout. For the same molecule, the “Herbicidal effects Barnyard grass” value in series [4] (chemical dosage 10 g/a) is 3 (Growth inhibition rate; 51 to 70%); in series [4] (chemical dosage 20 g/a), 4 (Growth inhibition rate; 71 to 90%). Further, the “Crop injury against transplanted rice” value in series [5] (chemical dosage 10 g/a) and in series [5] (chemical dosage 20 g/a) was 0 (Growth inhibition rate; 0 to 10%) in each case.
In the case of `CC(C)(C)c1cccc(C2CC2)c1Oc1nnc(Cl)cc1O` [Example 274], the “Herbicidal effects Cyperus serotinus” value in series [1] (chemical dosage 10 g/a) and in series [1] (chemical dosage 20 g/a) was 4 (Growth inhibition rate; 71 to 90%) in each case. Also, the “Herbicidal effects Scirpus joncoides” value is listed as 3 (Growth inhibition rate; 51 to 70%) in series [2] (chemical dosage 10 g/a) and 4 (Growth inhibition rate; 71 to 90%) in series [2] (chemical dosage 20 g/a). The “Herbicidal effects Broad leaf” value in series [3] (chemical dosage 10 g/a) and in series [3] (chemical dosage 20 g/a) was 5 (Growth inhibition rate; 91 to 100%) throughout. The “Herbicidal effects Barnyard grass” value in series [4] (chemical dosage 10 g/a) and in series [4] (chemical dosage 20 g/a) was 3 (Growth inhibition rate; 51 to 70%) in each case. Besides, the “Crop injury against transplanted rice” value in series [5] (chemical dosage 10 g/a) and in series [5] (chemical dosage 20 g/a) was 0 (Growth inhibition rate; 0 to 10%) in each case.
Turning to `O=S(=O)(Oc1cc(Cl)nnc1Oc1ccccc1C1CC1)c1ccccc1` [Example 365], the “Herbicidal effects Cyperus serotinus” value in series [1] (chemical dosage 10 g/a) and in series [1] (chemical dosage 20 g/a) was 5 (Growth inhibition rate; 91 to 100%) in each case. For the same molecule, the results for the “Herbicidal effects Scirpus joncoides” value in series [2] (chemical dosage 10 g/a) and in series [2] (chemical dosage 20 g/a) were 4 (Growth inhibition rate; 71 to 90%) and 5 (Growth inhibition rate; 91 to 100%), respectively. In addition, the “Herbicidal effects Broad leaf” value in series [3] (chemical dosage 10 g/a) and in series [3] (chemical dosage 20 g/a) was 5 (Growth inhibition rate; 91 to 100%) each time. For the same molecule, the results for the “Herbicidal effects Barnyard grass” value in series [4] (chemical dosage 10 g/a) and in series [4] (chemical dosage 20 g/a) were 2 (Growth inhibition rate; 31 to 50%) and 3 (Growth inhibition rate; 51 to 70%), respectively. The “Crop injury against transplanted rice” value in series [5] (chemical dosage 10 g/a) and in series [5] (chemical dosage 20 g/a) was 0 (Growth inhibition rate; 0 to 10%) each time.
In the case of `Cc1ccc(Cl)cc1Oc1nnc(Cl)cc1O` [Example 204], the “Herbicidal effects Cyperus serotinus” value in series [1] (chemical dosage 12.5 g/a) and in series [1] (chemical dosage 25 g/a) was 5 (Growth inhibition rate; 91 to 100%) in each case. Also, the “Herbicidal effects Scirpus joncoides” value in series [2] (chemical dosage 12.5 g/a) and in series [2] (chemical dosage 25 g/a) was 5 (Growth inhibition rate; 91 to 100%) throughout. For the same molecule, the “Herbicidal effects Broad leaf” value in series [3] (chemical dosage 12.5 g/a) and in series [3] (chemical dosage 25 g/a) was 5 (Growth inhibition rate; 91 to 100%) in each case. Further, the “Herbicidal effects Barnyard grass” value in series [4] (chemical dosage 12.5 g/a) and in series [4] (chemical dosage 25 g/a) was 2 (Growth inhibition rate; 31 to 50%) each time. Moreover, the “Crop injury against transplanted rice” value in series [5] (chemical dosage 12.5 g/a) and in series [5] (chemical dosage 25 g/a) was 0 (Growth inhibition rate; 0 to 10%) throughout.
Take `Cc1cc(C)c(Oc2nnc(Cl)cc2O)c(C2CC2)c1` [Example 318]: the “Herbicidal effects Cyperus serotinus” value in series [1] (chemical dosage 10 g/a) and in series [1] (chemical dosage 20 g/a) was 5 (Growth inhibition rate; 91 to 100%) each time. Further, the “Herbicidal effects Scirpus joncoides” value in series [2] (chemical dosage 10 g/a) and in series [2] (chemical dosage 20 g/a) was 5 (Growth inhibition rate; 91 to 100%) each time. Further, the “Herbicidal effects Broad leaf” value in series [3] (chemical dosage 10 g/a) and in series [3] (chemical dosage 20 g/a) was 5 (Growth inhibition rate; 91 to 100%) each time. In addition, the “Herbicidal effects Barnyard grass” value was 0 (Growth inhibition rate; 0 to 10%) in series [4] (chemical dosage 10 g/a) and 1 (Growth inhibition rate; 11 to 30%) in series [4] (chemical dosage 20 g/a). The “Crop injury against transplanted rice” value in series [5] (chemical dosage 10 g/a) and in series [5] (chemical dosage 20 g/a) was 0 (Growth inhibition rate; 0 to 10%) throughout.
